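Five compound concentrations were applied to cells in 96-well plates for 48 hours; endpoints were derived by simple linear interpolation of the resulting dose-response curve. Abbreviation: GI50, concentration required for 50% inhibition of growth.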 Calls of active or inactive are those of the source. Cut-off read from the data, not from the text of the source: active = GI50 up to about 1.1 µM and inactive = higher.
Tests used:
Experiment in all cases: NCI tumour cell line growth inhibition, 48 h
[1] = tested on: NCI-H226
[2] = tested on: RXF 631
[3] = tested on: OVCAR-4
[4] = tested on: NCI-H23
[5] = tested on: U-251
[6] = tested on: HT-29
[7] = tested on: HOP-92
[8] = tested on: HOP-18
[9] = tested on: ACHN
[10] = tested on: SK-MEL-28
[11] = tested on: K562
[12] = tested on: TK-10
[13] = tested on: SK-OV-3
[14] = tested on: OVCAR-3
[15] = tested on: KM-20L2
[16] = tested on: COLO 205
[17] = tested on: M19-MEL
[18] = tested on: HCC 2998
[19] = tested on: M14
[20] = tested on: DMS-273
[21] = tested on: HCT-15
[22] = tested on: MOLT-4
[23] = tested on: SR
[24] = tested on: DMS-114
[25] = tested on: OVCAR-8
[26] = tested on: OVCAR-5
[27] = tested on: RXF 393
[28] = tested on: 786-0
[29] = tested on: SF-295
[30] = tested on: NCI-H460
[31] = tested on: SW-620
[32] = tested on: LOX IMVI
[33] = tested on: KM12
[34] = tested on: UACC-257
[35] = tested on: SK-MEL-2
[36] = tested on: DLD-1
[37] = tested on: SN12C
[38] = tested on: SF-268
[39] = tested on: Malme-3M
[40] = tested on: UACC-62
[41] = tested on: CCRF-CEM
[42] = tested on: A498
[43] = tested on: SK-MEL-5
[44] = tested on: SF-539
[45] = tested on: HCT-116
[46] = tested on: IGROV-1
[47] = tested on: UO-31
[48] = tested on: HOP-62
[49] = tested on: EKVX
[50] = tested on: RPMI-8226
[51] = tested on: A549
[52] = tested on: HL-60
[53] = tested on: LXFL 529
[54] = tested on: SNB-75
[55] = tested on: SNB-78
[56] = tested on: CAKI-1
[57] = tested on: SNB-19
[58] = tested on: XF498
[59] = tested on: NCI-H522

`COc1cccc(C2c3cc4c(cc3OC(O)(CO)C2C(=O)O)OCO4)c1.COc1cccc(C2c3cc4c(cc3OC3(O)COC(=O)C23)OCO4)c1` (configuration not stated) was tested, and the GI50 [1] was 50 µM (inactive), the GI50 [2] was 75.5 µM (inactive) and the GI50 [3] was 37 µM (inactive). For the same molecule, the GI50 [4] was 43.5 µM (inactive), the GI50 [5] was 22.2 µM (inactive) and the GI50 [6] was 37.7 µM (inactive). The GI50 [7] was 30.6 µM (inactive), the GI50 [8] was > 100 µM (inactive) and the GI50 [9] was 49.5 µM (inactive). The GI50 [10] was 26.9 µM (inactive), the GI50 [11] was 37.7 µM (inactive) and the GI50 [12] was > 100 µM (inactive). For the same molecule, the GI50 [13] was 91.8 µM (inactive), the GI50 [14] was 69.5 µM (inactive) and the GI50 [15] was > 100 µM (inactive). The GI50 [16] was > 100 µM (inactive), the GI50 [17] was 76.9 µM (inactive) and the GI50 [18] was > 100 µM (inactive). The GI50 [19] was 48.8 µM (inactive), the GI50 [20] was 65.3 µM (inactive) and the GI50 [21] was 43.9 µM. For the same molecule, the GI50 [22] was 35.7 µM (inactive), the GI50 [23] was 38.8 µM (inactive) and the GI50 [24] was 49.4 µM (inactive). For the same molecule, the GI50 [25] was 46 µM (inactive), the GI50 [26] was > 100 µM (inactive) and the GI50 [27] was 33.5 µM (inactive). The GI50 [28] was > 100 µM (inactive), the GI50 [29] was 39.9 µM (inactive) and the GI50 [30] was 21.2 µM (inactive). The GI50 [31] was 82.2 µM (inactive), the GI50 [32] was 52.1 µM (inactive) and the GI50 [33] was 35.7 µM (inactive). The GI50 [34] was 41.5 µM (inactive), the GI50 [35] was > 100 µM (inactive) and the GI50 [36] was 48.9 µM (inactive). For the same molecule, the GI50 [37] was 55.3 µM (inactive), the GI50 [38] was 40.4 µM (inactive) and the GI50 [39] was > 100 µM (inactive). The GI50 [40] was 33.5 µM (inactive), the GI50 [41] was 37.6 µM (inactive) and the GI50 [42] was 47.4 µM (inactive). The GI50 [43] was 67.1 µM (inactive), the GI50 [44] was > 100 µM (inactive) and the GI50 [45] was 46.1 µM (inactive). The GI50 [46] was 62.7 µM (inactive), the GI50 [47] was 64.3 µM (inactive) and the GI50 [48] was > 100 µM (inactive). For the same molecule, the GI50 [49] was 42.8 µM (inactive), the GI50 [50] was 53 µM (inactive) and the GI50 [51] was 82.2 µM (inactive). The GI50 [52] was 33.7 µM (inactive), the GI50 [53] was 57.9 µM (inactive) and the GI50 [54] was 14.5 µM (inactive).
With `Cc1nc(NC(=S)NC(=O)c2ccc(Cl)c(Cl)c2)sc1C(=O)/C=C/c1ccccc1[N+](=O)[O-]` the GI50 [55] was 30.1 µM (inactive), the GI50 [2] was 24.1 µM (inactive) and the GI50 [3] was 26.8 µM (inactive). For the same molecule, the GI50 [4] was 20.9 µM (inactive), the GI50 [5] was 17.9 µM (inactive) and the GI50 [6] was 21.3 µM (inactive). The GI50 [7] was 0.989 µM (active), the GI50 [8] was 12.4 µM (inactive) and the GI50 [9] was 24.4 µM (inactive). The GI50 [10] was 25.4 µM (inactive), the GI50 [11] was 18.2 µM (inactive) and the GI50 [12] was 36.1 µM (inactive). The GI50 [13] was 15.6 µM (inactive), the GI50 [56] was 21.1 µM (inactive) and the GI50 [14] was 22.1 µM (inactive). For the same molecule, the GI50 [15] was 18.6 µM (inactive), the GI50 [16] was 18.4 µM (inactive) and the GI50 [17] was 26.8 µM (inactive). For the same molecule, the GI50 [18] was 33.3 µM (inactive), the GI50 [57] was 21.1 µM (inactive) and the GI50 [19] was 23.8 µM (inactive). The GI50 [20] was 20.9 µM (inactive), the GI50 [21] was 20.4 µM and the GI50 [22] was 19.8 µM (inactive). For the same molecule, the GI50 [23] was 24.5 µM (inactive), the GI50 [25] was 28.1 µM (inactive) and the GI50 [26] was > 10 µM (inactive). For the same molecule, the GI50 [27] was 19.4 µM (inactive), the GI50 [58] was 20.6 µM (inactive) and the GI50 [28] was 17.8 µM (inactive). The GI50 [29] was 24.2 µM (inactive), the GI50 [30] was 28.9 µM (inactive) and the GI50 [31] was 20.2 µM (inactive). The GI50 [32] was 16.6 µM (inactive), the GI50 [33] was 18.7 µM (inactive) and the GI50 [34] was 30.1 µM (inactive). The GI50 [35] was 18.4 µM (inactive), the GI50 [36] was 48.9 µM (inactive) and the GI50 [37] was 21.6 µM (inactive). The GI50 [38] was 39.4 µM (inactive), the GI50 [39] was 18.5 µM (inactive) and the GI50 [40] was 10.9 µM (inactive). The GI50 [41] was 22.4 µM (inactive), the GI50 [44] was 19 µM (inactive) and the GI50 [45] was 20.7 µM (inactive). For the same molecule, the GI50 [46] was 24.5 µM (inactive), the GI50 [47] was 20.8 µM (inactive) and the GI50 [48] was 21.2 µM (inactive). The GI50 [59] was 16.9 µM (inactive), the GI50 [49] was 32.7 µM (inactive) and the GI50 [50] was 24.2 µM (inactive). The GI50 [51] was 25.3 µM (inactive), the GI50 [52] was 19.1 µM (inactive) and the GI50 [53] was 21.6 µM (inactive).
In the case of `O=C1C[C@@H]2C(COC(=O)c3ccccc3)N(OCc3ccccc3)C[C@@H]2O1` (some centres not stated), the GI50 [1] is reported as > 100 µM (inactive), the GI50 [55] is reported as > 100 µM (inactive) and the GI50 [2] is reported as > 100 µM (inactive). The GI50 [3] was > 100 µM (inactive), the GI50 [4] was > 100 µM (inactive) and the GI50 [5] was > 100 µM (inactive). For the same molecule, the GI50 [6] was > 100 µM (inactive), the GI50 [8] was > 100 µM (inactive) and the GI50 [9] was > 100 µM (inactive). The GI50 [10] was > 100 µM (inactive), the GI50 [11] was > 100 µM (inactive) and the GI50 [12] was > 100 µM (inactive). For the same molecule, the GI50 [13] was > 100 µM (inactive), the GI50 [14] was > 100 µM (inactive) and the GI50 [15] was > 100 µM (inactive). For the same molecule, the GI50 [16] was > 100 µM (inactive), the GI50 [17] was > 100 µM (inactive) and the GI50 [18] was > 100 µM (inactive). For the same molecule, the GI50 [57] was > 100 µM (inactive), the GI50 [19] was > 100 µM (inactive) and the GI50 [20] was > 100 µM (inactive). The GI50 [21] was greater than 100 µM, the GI50 [22] was > 100 µM (inactive) and the GI50 [23] was > 100 µM (inactive). For the same molecule, the GI50 [24] was > 100 µM (inactive), the GI50 [25] was > 100 µM (inactive) and the GI50 [26] was > 100 µM (inactive). The GI50 [27] was > 100 µM (inactive), the GI50 [28] was > 100 µM (inactive) and the GI50 [30] was > 100 µM (inactive). The GI50 [31] was > 100 µM (inactive), the GI50 [32] was > 100 µM (inactive) and the GI50 [33] was > 100 µM (inactive). The GI50 [34] was > 100 µM (inactive), the GI50 [35] was > 100 µM (inactive) and the GI50 [36] was > 100 µM (inactive). The GI50 [37] was > 100 µM (inactive), the GI50 [38] was > 100 µM (inactive) and the GI50 [39] was > 100 µM (inactive). The GI50 [40] was > 100 µM (inactive), the GI50 [41] was > 100 µM (inactive) and the GI50 [42] was > 100 µM (inactive). The GI50 [43] was > 100 µM (inactive), the GI50 [44] was > 100 µM (inactive) and the GI50 [45] was > 100 µM (inactive). For the same molecule, the GI50 [46] was > 100 µM (inactive), the GI50 [47] was > 100 µM (inactive) and the GI50 [48] was > 100 µM (inactive). For the same molecule, the GI50 [59] was > 100 µM (inactive), the GI50 [49] was > 100 µM (inactive) and the GI50 [51] was > 100 µM (inactive). The GI50 [52] was > 100 µM (inactive), the GI50 [53] was > 100 µM (inactive) and the GI50 [54] was > 100 µM (inactive).
